# From patent US20120121691A1, “Method for Increasing the Production of a Specific ACYL-Chain Dihydroceramide(s) for Improving the Effectiveness of Cancer Treatments” (priority 2010, published 2012)
# Key:
# Type in all cases: cell-based, human
# [1] = system: intracellular sphingolipids, CCRF-CEM cells; experiment: LC/MS/MS analysis of intracellular sphingolipids, CCRF-CEM; details: for increase in corresponding dihydroceramide over sphinganine plus GT-11 alone: fatty acid in addition to sphinganine plus GT-11, six hours, P<0.05
# Protocol: (§1) LC/MS/MS analysis of intracellular sphingolipids. Sphingolipids were separated using an Agilent 1200 HPLC (LC) and determined by ESI/MS/MS performed on a AB SCIEX 4000 QTRAP Hybrid Triple Quadrupole/Linear Ion Trap mass spectrometer (MS), operating in a multiple reaction monitoring positive ionization mode as described previously with moderate modifications (25). Briefly, 50 μL of a solution (1 μM) of internal sphingolipid standards (including -sphingosine, -sphinganine, -sphingosine-1-phosphate, and -ceramide) was added to each cell pellet sample. Lipids of each sample were extracted twice with 2 mL of the ethyl acetate/isopropyl alcohol/water (60:28:12; v:v) solvent system. Supernatants were transferred to glass tubes (Kimble Chase) and evaporated under air (10 PSI) at 40° C. After reconstitution in methanol (4 mL), 1 ml of each sample was separated for the determination of lipid phosphate. Remaining sample (3 mL) was dried and used for sphingolipid quantification. For ESI/MS/MS, the dried lipid sample was dissolved in mobile phase A. Samples were injected (10 μL) and separated on a Spectra C8SR, 150×3.0 mm, 3-μm particle size column using gradient-elution (mobile phase A/B, prepared as previously described).
# (§2) Data acquisition, peak integration and analyte quantitation were performed using ABI/SCIEX Analyst 1.4.2 Software. Sphingolipid data were normalized to lipid phosphate as previously described (26). Briefly, samples were dried under air (10 PSI) and lipids were extracted using the method of Bligh and Dyer (27). Of importance for phosphate assay, only Kimble Chase disposable borosilicate tubes were used for minimal sample contamination. Organic phase was transferred to glass tubes and a known volume was separated to a new tube and dried at 80° C. Phosphate standards and dried samples were then heated with ashing buffer (water:10 N:70% [40:9:1]) at 160° C. overnight. Samples were then incubated with ammonium molybdate and ascorbic acid as previously described, and absorbance ([…]) was read using a SpectraMax.
# CCRF-CEM cells were treated with drug/fatty acid vehicles (control), GT-11 (0.5 μM) alone, sphinganine (4 μM) alone or sphinganine (4 μM) plus GT-11 (0.5 μM) for six hours and subsequently prepared for sphingolipid analysis.
# CCRF-CEM cells were treated with GT-11 (0.5 μM) alone, sphinganine (1 μM) alone or sphinganine (1 μM) plus GT-11 (0.5 μM) for six hours and prepared for quantitative analysis. DHCers were normalized to control and plotted as fold change (bar, z-axis). * indicates significance, with P<0.05. […] CCRF-CEM cells were treated with sphinganine (1 μM) plus GT-11 (0.5 μM) with and without specific solubilized fatty acids (carbon chain length (CX) and saturation (:X), Ex: C20:1=fatty acid with 20 carbons and one desaturation) for six hours and prepared for quantitative sphingolipid analysis. Dihydroceramides were normalized to control cells that received sphinganine plus GT-11 with no fatty acid and plotted as fold change (bar, z-axis). * indicates significance, with P<0.05.
# [2] = system: intracellular sphingolipids, MOLT-4; experiment: LC/MS/MS analysis of intracellular sphingolipids, MOLT-4; details: for increase in corresponding dihydroceramide over sphinganine+GT-11 alone: MOLT-4, fatty acid with sphinganine+GT-11, six hours, P<0.05
# Protocol: as §1
# Data acquisition, peak integration and analyte quantitation were performed using ABI/SCIEX Analyst 1.4.2 Software. Sphingolipid data were normalized to lipid phosphate as previously described (26). Briefly, samples were dried under air (10 PSI) and lipids were extracted using the method of Bligh and Dyer (27). Of importance for phosphate assay, only Kimble Chase disposable borosilicate tubes were used for minimal sample contamination. […] Samples were then incubated with ammonium molybdate and ascorbic acid as previously described, and absorbance ([…]) was read using a SpectraMax.
# Cells were treated for 48 hours with Sa (0-4 μM)+/−GT-11 (0.5 μM) with or without C18:0-, C22:0- or C22:1-fatty acids. Cytotoxicity was measured using DIMSCAN, and data was normalized to control and plotted as survival fraction (y-axis). […]
# [3] = system: intracellular sphingolipids, COG-LL-332; experiment: LC/MS/MS analysis of intracellular sphingolipids, COG-LL-332; details: for increase in corresponding dihydroceramide over sphinganine+GT-11 alone: COG-LL-332, fatty acid with sphinganine+GT-11, six hours, P<0.05
# Protocol: as §1, §2
# Cells were treated for 48 hours with Sa (0-4 μM)+/−GT-11 (0.5 μM) with or without C18:0-, C22:0- or C22:1-fatty acids. Cytotoxicity was measured using DIMSCAN, and data was normalized to control and plotted as survival fraction (y-axis). Gray and white symbols represent long and very long chain fatty acids, respectively. Gray lines encompass data used for sphingolipid correlation analysis with cytotoxicity. Datum point, mean; error bar, SEM. […]
# Cytotoxicity was measured using DIMSCAN, and data was normalized to control and plotted as survival fraction (y-axis).
# [4] = fatty acid 5 μM in addition to sphinganine 1 μM plus GT-11 0.5 μM, six hours, P<0.001
# [5] = fatty acid in addition to sphinganine, no GT-11, P<0.001
Compound,"increase in C22:0-DHCer over sphinganine plus GT-11 alone [1, 4] [fold]","increase in C24:0-DHCer over sphinganine plus GT-11 alone [1, 4] [fold]",increase in corresponding dihydroceramide over sphinganine plus GT-11 alone [1],"increase in C22:0-Cer over sphinganine alone [1, 5] [fold]","increase in C24:0-Cer over sphinganine alone [1, 5] [fold]","increase of C22:0-dihydroceramide over sphinganine+GT-11 alone ([2]; MOLT-4, fatty acid with sphinganine 1 μM plus GT-11 0.5 μM, six hours, P<0.01) [fold]",increase in corresponding dihydroceramide over sphinganine+GT-11 alone [2],"increase of C22:0-dihydroceramide compared to 4-HPR alone ([3]; COG-LL-332, fatty acid with 4-HPR 1.1 μM, six hours, P<0.001) [fold]","increase of C22:0-dihydroceramide over sphinganine+GT-11 alone ([3]; COG-LL-332, fatty acid with sphinganine 1 μM plus GT-11 0.5 μM, six hours, P<0.001) [fold]",increase in corresponding dihydroceramide over sphinganine+GT-11 alone [3]
CCCCCCCCCCCCCCCCCCCCCC(=O)O [C22:0-fatty acid],32,19,significant increases,13,4.6,29,significant increases,8,57,significant increases
CCCCCCCC/C=C\CCCCCCCCCCCC(=O)O [C22:1-fatty acid],–,–,significant increases,–,–,–,significant increases,–,–,significant increases
